{"source": "paper PMC2788029", "about": "(Journal of molecular biology, 2009)", "key": {"[1]": {"molecular_target": "T1, T4 lysozyme L99A/M102Q (Enterobacteria phage T4, UniProt P00720, C54T/C97A/L99A/M102Q)", "assay_type": "binding"}, "[2]": {"molecular_target": "T1, T4 lysozyme L99A/M102Q", "conditions": "cited from earlier work"}, "[3]": {"molecular_target": "T1, T4 lysozyme L99A/M102Q", "assay": "biochemical", "assay_type": "binding"}, "[4]": {"conditions": "free energy of binding by ITC at 10°C, pH 6.8, prospective set"}}, "note": "Entries after “also recorded” stand apart in the source; their conditions may differ. Read-outs that look alike come from different tables or passages of the source."}
{"smiles": "O=[N+]([O-])c1cccs1", "note": "[2-nitrothiophene]", "values": [{"measurement": "ΔGb,exp", "setting": "[1]; [4]", "result": "-4.85 ± 0.25", "unit": "kcal/mol"}]}
{"smiles": "c1cc2sccc2s1", "note": "[thieno[3,2-b]thiophene]", "values": [{"measurement": "ΔGb,exp", "setting": "[1]; [4]", "result": "-4.67 ± 0.17", "unit": "kcal/mol"}]}
{"smiles": "Cc1ccc(Cl)cc1O", "note": "[5-chloro-2-methylphenol]", "values": [{"measurement": "ΔGb,exp", "setting": "[1]", "result": "-5.04 ± 0.07", "unit": "kcal/mol"}]}
{"smiles": "CC(=O)OCc1ccccc1", "note": "[benzyl acetate]", "values": [{"measurement": "ΔGb,exp", "setting": "[1]; [4]", "result": "-4.48 ± 0.16", "unit": "kcal/mol"}]}
{"smiles": "Nc1ccccc1O", "note": "[2-aminophenol]", "values": [{"measurement": "binding to L99A/M102Q (known)", "setting": "[2]", "result": "non-binder; also recorded: does not bind detectably"}]}
{"smiles": "CCCc1ccccc1O", "note": "[2-propylphenol]", "values": [{"measurement": "ΔGb,exp", "setting": "[1]", "result": "-5.33 ± 0.05", "unit": "kcal/mol"}]}
{"smiles": "Cc1ccccc1O", "note": "[2-methylphenol]", "values": [{"measurement": "ΔGb,exp", "setting": "[1]", "result": "-4.44 ± 0.11", "unit": "kcal/mol"}]}
{"smiles": "Oc1ccccc1", "note": "[phenol]", "values": [{"measurement": "ΔGb,exp", "setting": "[2]", "result": -5.24, "unit": "kcal/mol"}]}
{"smiles": "Oc1ccccc1O", "note": "[catechol, reference compound]", "values": [{"measurement": "ΔGb,exp", "setting": "[1]", "result": "-4.16 ± 0.03", "unit": "kcal/mol"}, {"measurement": "binding to L99A/M102Q (known)", "setting": "[2]; known ligands and non-binders", "result": "is a ligand"}]}
{"smiles": "CCOc1ccccc1O", "note": "[2-ethoxyphenol]", "values": [{"measurement": "ΔGb,exp", "setting": "[1]", "result": "-4.02 ± 0.03", "unit": "kcal/mol"}]}
{"smiles": "C=Cc1ccncc1", "note": "[4-vinylpyridine]", "values": [{"measurement": "binding to L99A/M102Q (known)", "setting": "[2]; known ligands and non-binders", "result": "non-binder"}]}
{"smiles": "O=Nc1ccccc1", "note": "[nitrosobenzene]", "values": [{"measurement": "binding free energy, estimated", "setting": "[3]", "result": "-3.88 to -2.59", "unit": "kcal/mol"}, {"measurement": "ΔGb,exp (binding class)", "setting": "[3]", "result": "weak"}, {"measurement": "Kd", "setting": "[3]; affinity estimated from concentration where significant Tm upshift was observed", "result": "~1000", "unit": "µM"}]}
{"smiles": "CCc1ccccc1O", "note": "[2-ethylphenol]", "values": [{"measurement": "ΔGb,exp", "setting": "[1]", "result": "-4.57 ± 0.11", "unit": "kcal/mol"}]}
{"smiles": "c1cc2c([nH]1)CCCC2", "note": "[4,5,6,7-tetrahydroindole]", "values": [{"measurement": "ΔGb,exp", "setting": "[1]; [4]", "result": "-4.61 ± 0.09", "unit": "kcal/mol"}]}
{"smiles": "CCOC1CCC=CO1", "note": "(stereo not drawn) [2-ethoxy-3,4-dihydro-2h-pyran]", "values": [{"measurement": "binding free energy, estimated", "setting": "[3]", "result": "-3.88 to -2.59", "unit": "kcal/mol"}, {"measurement": "ΔGb,exp (binding class)", "setting": "[3]", "result": "weak"}]}
{"smiles": "Clc1cn[nH]c1", "note": "[4-chloro-1h-pyrazole]", "values": [{"measurement": "binding free energy, estimated", "setting": "[3]", "result": "-3.88 to -2.59", "unit": "kcal/mol"}, {"measurement": "ΔGb,exp (binding class)", "setting": "[3]", "result": "weak"}]}
